ChEMBL document CHEMBL3797178, “Synthesis, antimycobacterial and antibacterial activity of 1-(6-amino-3,5-difluoropyridin-2-yl)fluoroquinolone derivatives containing an oxime functional moiety” (2016)
Values after ≈ are worked out from the molar mass of the structure shown.

Tests used:
Type in all cases: functional
[1] = system: Mycobacterium tuberculosis; assay: Antimycobacterial activity against Mycobacterium tuberculosis H37Rv ATCC 27294 after 3 days by microplate Alamar Blue assay; settings: H37Rv ATCC 27294, 72 h
Escherichia coli [2] = assay: Antibacterial activity against Escherichia coli ATCC 25922 after 18 to 24 hrs by CLSI M100-S11 method
Escherichia coli [3] = assay: Antibacterial activity against extended-spectrum beta-lactamase-producing Escherichia coli 14-1 after 18 to 24 hrs by CLSI M100-S11 method
Escherichia coli [4] = assay: Antibacterial activity against extended-spectrum beta-lactamase-producing Escherichia coli 14-2 after 18 to 24 hrs by CLSI M100-S11 method
Escherichia coli [5] = assay: Antibacterial activity against Escherichia coli 14-1 after 18 to 24 hrs by CLSI M100-S11 method
Escherichia coli [6] = assay: Antibacterial activity against Escherichia coli 14-2 after 18 to 24 hrs by CLSI M100-S11 method
Klebsiella pneumoniae [7] = assay: Antibacterial activity against extended-spectrum beta-lactamase-producing Klebsiella pneumoniae 14-17 after 18 to 24 hrs by CLSI M100-S11 method
Klebsiella pneumoniae [8] = assay: Antibacterial activity against extended-spectrum beta-lactamase-producing Klebsiella pneumoniae 14-18 after 18 to 24 hrs by CLSI M100-S11 method
Klebsiella pneumoniae [9] = assay: Antibacterial activity against extended-spectrum beta-lactamase-producing Klebsiella pneumoniae 14-19 after 18 to 24 hrs by CLSI M100-S11 method
Klebsiella pneumoniae [10] = assay: Antibacterial activity against Klebsiella pneumoniae 14-1 after 18 to 24 hrs by CLSI M100-S11 method
Klebsiella pneumoniae [11] = assay: Antibacterial activity against Klebsiella pneumoniae 14-2 after 18 to 24 hrs by CLSI M100-S11 method
Klebsiella pneumoniae [12] = assay: Antibacterial activity against Klebsiella pneumoniae 14-3 after 18 to 24 hrs by CLSI M100-S11 method
Klebsiella pneumoniae [13] = assay: Antibacterial activity against Klebsiella pneumoniae 14-4 after 18 to 24 hrs by CLSI M100-S11 method
Pseudomonas aeruginosa [14] = assay: Antibacterial activity against Pseudomonas aeruginosa ATCC 27853 after 18 to 24 hrs by CLSI M100-S11 method
Pseudomonas aeruginosa [15] = assay: Antibacterial activity against Pseudomonas aeruginosa 14-9 after 18 to 24 hrs by CLSI M100-S11 method
Pseudomonas aeruginosa [16] = assay: Antibacterial activity against Pseudomonas aeruginosa 14-14 after 18 to 24 hrs by CLSI M100-S11 method
Pseudomonas aeruginosa [17] = assay: Antibacterial activity against Pseudomonas aeruginosa 14-15 after 18 to 24 hrs by CLSI M100-S11 method
Pseudomonas aeruginosa [18] = assay: Antibacterial activity against Pseudomonas aeruginosa 14-16 after 18 to 24 hrs by CLSI M100-S11 method
Pseudomonas aeruginosa [19] = assay: Antibacterial activity against Pseudomonas aeruginosa 14-19 after 18 to 24 hrs by CLSI M100-S11 method
Staphylococcus aureus [20] = assay: Antibacterial activity against Staphylococcus aureus CMCC 26003 after 18 to 24 hrs by CLSI M100-S11 method
Staphylococcus aureus [21] = assay: Antibacterial activity against methicillin-sensitive Staphylococcus aureus 14-2 after 18 to 24 hrs by CLSI M100-S11 method
Staphylococcus aureus [22] = assay: Antibacterial activity against methicillin-sensitive Staphylococcus aureus 14-3 after 18 to 24 hrs by CLSI M100-S11 method
Staphylococcus aureus [23] = assay: Antibacterial activity against methicillin-sensitive Staphylococcus aureus 14-4 after 18 to 24 hrs by CLSI M100-S11 method
Staphylococcus aureus [24] = assay: Antibacterial activity against methicillin-resistant Staphylococcus aureus 14-4 after 18 to 24 hrs by CLSI M100-S11 method
Staphylococcus aureus [25] = assay: Antibacterial activity against methicillin-resistant Staphylococcus aureus 14-5 after 18 to 24 hrs by CLSI M100-S11 method
[26] = system: Staphylococcus epidermidis; assay: Antibacterial activity against methicillin-sensitive Staphylococcus epidermidis 14-2 after 18 to 24 hrs by CLSI M100-S11 method
[27] = system: Staphylococcus epidermidis; assay: Antibacterial activity against methicillin-sensitive Staphylococcus epidermidis 14-4 after 18 to 24 hrs by CLSI M100-S11 method
[28] = system: Staphylococcus epidermidis; assay: Antibacterial activity against methicillin-sensitive Staphylococcus epidermidis 14-6 after 18 to 24 hrs by CLSI M100-S11 method
[29] = system: Staphylococcus epidermidis; assay: Antibacterial activity against methicillin-resistant Staphylococcus epidermidis 14-22 after 18 to 24 hrs by CLSI M100-S11 method
[30] = system: Staphylococcus epidermidis; assay: Antibacterial activity against methicillin-resistant Staphylococcus epidermidis 14-37 after 18 to 24 hrs by CLSI M100-S11 method
[31] = system: Staphylococcus epidermidis; assay: Antibacterial activity against methicillin-resistant Staphylococcus epidermidis 14-39 after 18 to 24 hrs by CLSI M100-S11 method
Streptococcus pneumoniae = assay: Antibacterial activity against Streptococcus pneumoniae ATCC 19615 after 18 to 24 hrs by CLSI M100-S11 method
Enterococcus faecium [32] = assay: Antibacterial activity against Enterococcus faecium 14-1 after 18 to 24 hrs by CLSI M100-S11 method
Enterococcus faecium [33] = assay: Antibacterial activity against Enterococcus faecium 14-2 after 18 to 24 hrs by CLSI M100-S11 method
Enterococcus faecalis [34] = assay: Antibacterial activity against Enterococcus faecalis 14-1 after 18 to 24 hrs by CLSI M100-S11 method
Enterococcus faecalis [35] = assay: Antibacterial activity against Enterococcus faecalis 14-2 after 18 to 24 hrs by CLSI M100-S11 method
Enterococcus faecalis [36] = assay: Antibacterial activity against Enterococcus faecalis 14-3 after 18 to 24 hrs by CLSI M100-S11 method

Structure (SMILES) | MIC [1] | MIC (Escherichia coli [2]) | MIC (Escherichia coli [3]) | MIC (Escherichia coli [4]) | MIC (Escherichia coli [5]) | MIC (Escherichia coli [6]) | MIC (Klebsiella pneumoniae [7]) | MIC (Klebsiella pneumoniae [8]) | MIC (Klebsiella pneumoniae [9]) | MIC (Klebsiella pneumoniae [10]) | MIC (Klebsiella pneumoniae [11]) | MIC (Klebsiella pneumoniae [12]) | MIC (Klebsiella pneumoniae [13]) | MIC (Pseudomonas aeruginosa [14]) | MIC (Pseudomonas aeruginosa [15]) | MIC (Pseudomonas aeruginosa [16]) | MIC (Pseudomonas aeruginosa [17]) | MIC (Pseudomonas aeruginosa [18]) | MIC (Pseudomonas aeruginosa [19]) | MIC (Staphylococcus aureus [20]) | also measured
CCO/N=C1\CN(c2nc3c(cc2F)c(=O)c(C(=O)O)cn3-c2nc(N)c(F)cc2F)CC1CN (centres undefined) | 6.56 µg/mL (≈ 13.3 µM) | 0.5 µg/mL (≈ 1.02 µM) | 8 µg/mL (≈ 16.3 µM) | 128 µg/mL (≈ 260 µM) | 64 µg/mL (≈ 130 µM) | 64 µg/mL (≈ 130 µM) | 64 µg/mL (≈ 130 µM) | 32 µg/mL (≈ 65.1 µM) | 128 µg/mL (≈ 260 µM) | 64 µg/mL (≈ 130 µM) | 128 µg/mL (≈ 260 µM) | 128 µg/mL (≈ 260 µM) | 128 µg/mL (≈ 260 µM) | 4 µg/mL (≈ 8.14 µM) | 16 µg/mL (≈ 32.6 µM) | 16 µg/mL (≈ 32.6 µM) | 16 µg/mL (≈ 32.6 µM) | 16 µg/mL (≈ 32.6 µM) | 32 µg/mL (≈ 65.1 µM) | 0.06 µg/mL (≈ 0.122 µM) | MIC (Staphylococcus aureus [21]): 0.25 µg/mL (≈ 0.509 µM); MIC (Staphylococcus aureus [22]): 0.5 µg/mL (≈ 1.02 µM); MIC (Staphylococcus aureus [23]): 0.5 µg/mL (≈ 1.02 µM); MIC (Staphylococcus aureus [24]): 64 µg/mL (≈ 130 µM); MIC (Staphylococcus aureus [25]): 64 µg/mL (≈ 130 µM); MIC [26]: 64 µg/mL (≈ 130 µM); MIC [27]: 32 µg/mL (≈ 65.1 µM); MIC [28]: 32 µg/mL (≈ 65.1 µM); MIC [29]: 32 µg/mL (≈ 65.1 µM); MIC [30]: 64 µg/mL (≈ 130 µM); MIC [31]: 32 µg/mL (≈ 65.1 µM); MIC (Streptococcus pneumoniae): 16 µg/mL (≈ 32.6 µM); MIC (Enterococcus faecium [32]): 128 µg/mL (≈ 260 µM); MIC (Enterococcus faecium [33]): 8 µg/mL (≈ 16.3 µM); MIC (Enterococcus faecalis [34]): 16 µg/mL (≈ 32.6 µM); MIC (Enterococcus faecalis [35]): 16 µg/mL (≈ 32.6 µM); MIC (Enterococcus faecalis [36]): 32 µg/mL (≈ 65.1 µM)
CO/N=C1\CN(c2nc3c(cc2F)c(=O)c(C(=O)O)cn3-c2nc(N)c(F)cc2F)CC1CN (centres undefined) | 7.13 µg/mL (≈ 14.9 µM) | 2 µg/mL (≈ 4.19 µM) | 16 µg/mL (≈ 33.5 µM) | > 128 µg/mL | 128 µg/mL (≈ 268 µM) | 128 µg/mL (≈ 268 µM) | 128 µg/mL (≈ 268 µM) | 32 µg/mL (≈ 67 µM) | > 128 µg/mL | > 128 µg/mL | > 128 µg/mL | > 128 µg/mL | > 128 µg/mL | 4 µg/mL (≈ 8.38 µM) | 16 µg/mL (≈ 33.5 µM) | 32 µg/mL (≈ 67 µM) | 32 µg/mL (≈ 67 µM) | 32 µg/mL (≈ 67 µM) | 64 µg/mL (≈ 134 µM) | 0.5 µg/mL (≈ 1.05 µM) | MIC (Staphylococcus aureus [21]): 0.5 µg/mL (≈ 1.05 µM); MIC (Staphylococcus aureus [22]): 0.5 µg/mL (≈ 1.05 µM); MIC (Staphylococcus aureus [23]): 0.25 µg/mL (≈ 0.524 µM); MIC (Staphylococcus aureus [24]): > 128 µg/mL; MIC (Staphylococcus aureus [25]): 64 µg/mL (≈ 134 µM); MIC [26]: > 128 µg/mL; MIC [27]: 64 µg/mL (≈ 134 µM); MIC [28]: 64 µg/mL (≈ 134 µM); MIC [29]: 64 µg/mL (≈ 134 µM); MIC [30]: 128 µg/mL (≈ 268 µM); MIC [31]: 64 µg/mL (≈ 134 µM); MIC (Streptococcus pneumoniae): 64 µg/mL (≈ 134 µM); MIC (Enterococcus faecium [32]): > 128 µg/mL; MIC (Enterococcus faecium [33]): 64 µg/mL (≈ 134 µM); MIC (Enterococcus faecalis [34]): 16 µg/mL (≈ 33.5 µM); MIC (Enterococcus faecalis [35]): 16 µg/mL (≈ 33.5 µM); MIC (Enterococcus faecalis [36]): 32 µg/mL (≈ 67 µM)
